Data: publication PMC7366380, “Discovery of a Potent and Selective Covalent Inhibitor and Activity-Based Probe for the Deubiquitylating Enzyme UCHL1, with Antifibrotic Activity” (Journal of the American Chemical Society, 2020)
Values joined by “and” are separate entries in the source; they are usually repeats but may differ in a detail not shown here. Equal values may be shown once.

Columns and labels:
[1] = tested on: primary human bronchial fibroblasts from IPF patients
UCHL3 = target: T1, UCHL3 (Homo sapiens, UniProt P15374); test: Quantitative chemical proteomic profiling of ABP 2 in HEK293 cells: UCHL3; conditions: for Log2 reporter intensity values (Log2FC, DMSO substract): UCHL3, listed as ABP 2
T1 sequence (P15374 1-230): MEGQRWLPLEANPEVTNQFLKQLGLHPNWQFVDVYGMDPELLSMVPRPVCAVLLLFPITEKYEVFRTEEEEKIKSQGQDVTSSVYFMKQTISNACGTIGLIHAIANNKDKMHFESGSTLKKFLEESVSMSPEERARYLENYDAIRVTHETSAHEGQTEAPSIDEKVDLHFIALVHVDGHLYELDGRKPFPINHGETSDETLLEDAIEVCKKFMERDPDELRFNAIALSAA

PSMD14 = PSMD14 (Homo sapiens, UniProt O00487); test: Quantitative chemical proteomic profiling of ABP 2 in HEK293 cells: PSMD14; conditions: for Log2 reporter intensity values (Log2FC, DMSO substract): PSMD14, listed as ABP 2
[2] = target: T2, DUBs and other proteins in HEK293 cells (Homo sapiens, UniProt Q53GS9); test: Quantitative chemical proteomic profiling of ABP 2 in HEK293 cells: other DUBs and proteins across the proteome; conditions: USP39
T2 sequence (Q53GS9 1-565): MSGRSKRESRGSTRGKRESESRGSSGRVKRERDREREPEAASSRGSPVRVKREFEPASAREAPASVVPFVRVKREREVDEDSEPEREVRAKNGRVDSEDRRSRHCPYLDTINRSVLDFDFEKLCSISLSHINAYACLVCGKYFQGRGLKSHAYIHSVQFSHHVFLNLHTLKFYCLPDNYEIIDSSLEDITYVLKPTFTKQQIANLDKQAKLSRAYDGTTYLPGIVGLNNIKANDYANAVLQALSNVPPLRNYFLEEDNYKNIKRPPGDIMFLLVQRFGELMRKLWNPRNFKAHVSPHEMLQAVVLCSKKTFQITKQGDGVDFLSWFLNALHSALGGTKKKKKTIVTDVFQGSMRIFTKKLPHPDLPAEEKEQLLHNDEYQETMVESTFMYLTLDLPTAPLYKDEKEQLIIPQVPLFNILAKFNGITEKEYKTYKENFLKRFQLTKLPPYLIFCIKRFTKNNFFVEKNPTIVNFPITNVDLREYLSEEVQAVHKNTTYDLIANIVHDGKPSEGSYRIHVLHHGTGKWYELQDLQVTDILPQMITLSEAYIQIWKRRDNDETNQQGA

[3] = target: DUBs and other proteins in HEK293 cells (Homo sapiens, UniProt Q93008); test: as above; conditions: USP9X, listed as ABP 2
[4] = target: T3, DUBs and other proteins in HEK293 cells (Homo sapiens, UniProt Q9Y4E8); test: as above; conditions: USP15, listed as ABP 2
T3 sequence (Q9Y4E8 1-981): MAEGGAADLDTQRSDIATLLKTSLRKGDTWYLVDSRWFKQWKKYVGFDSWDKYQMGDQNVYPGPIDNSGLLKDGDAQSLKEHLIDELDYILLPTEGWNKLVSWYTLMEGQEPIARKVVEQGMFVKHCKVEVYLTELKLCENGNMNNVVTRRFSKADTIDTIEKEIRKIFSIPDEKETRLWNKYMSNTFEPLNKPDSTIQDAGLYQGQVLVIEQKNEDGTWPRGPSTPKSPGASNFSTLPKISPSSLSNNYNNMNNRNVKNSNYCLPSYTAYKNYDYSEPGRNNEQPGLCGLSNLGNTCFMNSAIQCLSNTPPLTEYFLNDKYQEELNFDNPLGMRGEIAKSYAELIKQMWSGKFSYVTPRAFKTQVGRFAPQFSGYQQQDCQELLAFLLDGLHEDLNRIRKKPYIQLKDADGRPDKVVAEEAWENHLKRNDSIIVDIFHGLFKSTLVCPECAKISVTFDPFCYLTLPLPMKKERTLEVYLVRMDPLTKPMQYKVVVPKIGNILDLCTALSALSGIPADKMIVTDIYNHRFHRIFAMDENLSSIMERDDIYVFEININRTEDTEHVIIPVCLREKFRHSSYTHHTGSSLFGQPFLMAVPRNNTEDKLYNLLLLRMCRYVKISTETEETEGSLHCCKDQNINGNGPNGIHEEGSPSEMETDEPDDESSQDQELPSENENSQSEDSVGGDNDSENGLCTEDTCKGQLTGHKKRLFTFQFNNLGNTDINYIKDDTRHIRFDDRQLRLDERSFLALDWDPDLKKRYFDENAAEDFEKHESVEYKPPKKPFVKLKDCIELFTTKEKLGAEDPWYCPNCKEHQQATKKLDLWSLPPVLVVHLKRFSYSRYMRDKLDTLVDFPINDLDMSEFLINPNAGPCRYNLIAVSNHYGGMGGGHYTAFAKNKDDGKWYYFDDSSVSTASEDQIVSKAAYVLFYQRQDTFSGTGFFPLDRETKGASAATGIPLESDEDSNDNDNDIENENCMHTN

[5] = 200 nM, 180 min, replicates A,C

Sequence of DUBs and other proteins in HEK293 cells (Homo sapiens, UniProt Q93008) (Q93008 whole entry): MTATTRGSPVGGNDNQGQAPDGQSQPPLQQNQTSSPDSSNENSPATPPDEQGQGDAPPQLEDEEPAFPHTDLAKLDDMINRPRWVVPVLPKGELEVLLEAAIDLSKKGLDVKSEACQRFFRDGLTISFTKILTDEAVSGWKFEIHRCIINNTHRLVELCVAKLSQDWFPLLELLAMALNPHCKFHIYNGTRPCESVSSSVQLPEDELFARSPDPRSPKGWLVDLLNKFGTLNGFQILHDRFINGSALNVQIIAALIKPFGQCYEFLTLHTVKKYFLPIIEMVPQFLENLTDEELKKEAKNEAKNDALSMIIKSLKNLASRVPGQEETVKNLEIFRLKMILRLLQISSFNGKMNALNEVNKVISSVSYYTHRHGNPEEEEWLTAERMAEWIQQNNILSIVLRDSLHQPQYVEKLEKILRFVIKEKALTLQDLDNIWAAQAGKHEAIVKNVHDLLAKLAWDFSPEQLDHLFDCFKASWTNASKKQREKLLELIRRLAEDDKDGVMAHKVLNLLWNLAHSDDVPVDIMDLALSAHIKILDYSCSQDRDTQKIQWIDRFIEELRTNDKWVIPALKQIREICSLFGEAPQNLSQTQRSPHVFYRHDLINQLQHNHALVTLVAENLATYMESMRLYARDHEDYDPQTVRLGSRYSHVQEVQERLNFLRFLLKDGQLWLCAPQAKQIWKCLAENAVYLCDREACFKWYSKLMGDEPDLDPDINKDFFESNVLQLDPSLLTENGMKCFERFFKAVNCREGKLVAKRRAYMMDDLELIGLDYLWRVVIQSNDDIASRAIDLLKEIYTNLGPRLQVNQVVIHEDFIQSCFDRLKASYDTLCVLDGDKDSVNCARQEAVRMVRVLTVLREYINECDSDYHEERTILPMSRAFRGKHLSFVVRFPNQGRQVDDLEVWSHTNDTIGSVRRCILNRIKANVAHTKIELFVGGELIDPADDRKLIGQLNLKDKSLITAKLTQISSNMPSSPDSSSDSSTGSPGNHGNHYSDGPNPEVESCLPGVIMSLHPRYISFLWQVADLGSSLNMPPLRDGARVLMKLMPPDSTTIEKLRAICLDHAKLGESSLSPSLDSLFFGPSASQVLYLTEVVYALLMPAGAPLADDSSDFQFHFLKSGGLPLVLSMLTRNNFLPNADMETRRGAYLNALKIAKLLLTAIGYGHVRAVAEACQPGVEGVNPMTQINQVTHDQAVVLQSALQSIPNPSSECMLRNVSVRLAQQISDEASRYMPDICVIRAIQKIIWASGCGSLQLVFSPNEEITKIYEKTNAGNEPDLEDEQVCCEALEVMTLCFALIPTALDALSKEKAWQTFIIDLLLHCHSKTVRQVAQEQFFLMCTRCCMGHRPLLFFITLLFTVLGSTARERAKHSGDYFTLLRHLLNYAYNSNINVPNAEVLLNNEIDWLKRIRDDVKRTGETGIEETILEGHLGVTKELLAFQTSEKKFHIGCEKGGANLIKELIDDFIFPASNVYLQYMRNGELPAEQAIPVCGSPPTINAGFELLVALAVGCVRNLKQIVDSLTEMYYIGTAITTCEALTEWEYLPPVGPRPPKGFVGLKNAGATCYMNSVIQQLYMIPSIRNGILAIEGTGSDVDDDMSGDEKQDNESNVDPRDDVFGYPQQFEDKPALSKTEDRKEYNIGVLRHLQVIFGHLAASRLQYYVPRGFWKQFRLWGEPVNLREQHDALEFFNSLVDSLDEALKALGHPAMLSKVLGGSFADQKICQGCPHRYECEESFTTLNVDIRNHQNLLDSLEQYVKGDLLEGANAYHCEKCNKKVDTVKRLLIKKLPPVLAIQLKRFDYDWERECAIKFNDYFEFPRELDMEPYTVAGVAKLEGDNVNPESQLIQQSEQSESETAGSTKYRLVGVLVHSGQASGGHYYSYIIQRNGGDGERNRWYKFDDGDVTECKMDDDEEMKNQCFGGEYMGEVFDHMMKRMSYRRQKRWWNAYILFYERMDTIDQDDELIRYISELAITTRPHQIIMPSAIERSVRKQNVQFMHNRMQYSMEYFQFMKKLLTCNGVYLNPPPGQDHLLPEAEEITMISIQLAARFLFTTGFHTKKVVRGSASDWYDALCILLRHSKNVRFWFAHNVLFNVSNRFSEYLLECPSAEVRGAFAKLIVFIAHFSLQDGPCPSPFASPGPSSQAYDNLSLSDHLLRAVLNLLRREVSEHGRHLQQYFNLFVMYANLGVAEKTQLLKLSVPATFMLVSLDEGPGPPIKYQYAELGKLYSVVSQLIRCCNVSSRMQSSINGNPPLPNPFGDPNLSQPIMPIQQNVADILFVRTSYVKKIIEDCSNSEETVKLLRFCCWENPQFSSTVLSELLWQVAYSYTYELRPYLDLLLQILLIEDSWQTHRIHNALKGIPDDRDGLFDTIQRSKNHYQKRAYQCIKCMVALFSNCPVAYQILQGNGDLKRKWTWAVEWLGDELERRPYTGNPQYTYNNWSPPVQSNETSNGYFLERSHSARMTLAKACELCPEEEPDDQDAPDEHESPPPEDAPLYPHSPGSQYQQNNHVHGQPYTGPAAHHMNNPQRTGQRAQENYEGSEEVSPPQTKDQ

CC(=O)O/N=C1\C(=O)N(Cc2cc(Cl)ccc2Cl)c2ccc(Cl)cc21 [LDN-57444, reference compound] was tested, and the “cytotoxicity (in words)” value [1] was “increased cytotoxicity”.
In the case of C#Cc1cnc2[nH]cc(-c3cccc4c3CCN4C(=O)[C@@H]3CCCN3C#N)c2c1 [Compound 2], the “UCHL3 enrichment (chemical proteomics)” value (UCHL3; HEK293, higher concentrations) is reported as “marginal enrichment”, the “Log2 reporter intensity values (Log2FC, DMSO substract)” value (shortened to “Log2 reporter intensity values”) (UCHL3; 2 nM, 60 min, replicates A-C) is reported as 0.05364 and -0.07312 and 0.4093 and the “Log2 reporter intensity values” value (UCHL3; 20 nM, 10 min, replicates B,C) is reported as 0.1568 and 0.3164. For the same compound, the “Log2 reporter intensity values” value (UCHL3; 20 nM, 60 min, replicates A-C) was 0.5413 and 1.009 and 0.8836, the “Log2 reporter intensity values” value (UCHL3; 20 nM, 180 min, replicates A-C) was 1.082 and 1.256 and 0.9512 and the “Log2 reporter intensity values” value (UCHL3; 200 nM, 10 min, replicates B,C) was 0.8647 and 0.7273. The “Log2 reporter intensity values” value (UCHL3; 200 nM, 60 min, replicates A-C) was 1.566 and 2.128 and 1.659, the “Log2 reporter intensity values” value (UCHL3; [5]) was 2.355 and 2.225 and the “Log2 t-test Difference, PSMD14, 2 nM” value (PSMD14; HEK293, 2 nM vs DMSO, 1 h, enrichment, TMT, n=3) was 0.06988. For the same compound, the “Log2 t-test Difference, PSMD14, 20 nM” value (PSMD14; HEK293, 20 nM vs DMSO, 1 h, enrichment, TMT, n=3) was -0.004272, the “Log2 t-test Difference, PSMD14, 200 nM” value (PSMD14; HEK293, 200 nM vs DMSO, 1 h, enrichment, TMT, n=3) was 0.1265 and the “Log2 reporter intensity values” value (PSMD14; 2 nM, 60 min, replicates A-C) was 0.2334 and 0.06155 and -0.08529. The “Log2 reporter intensity values” value (PSMD14; 20 nM, 10 min, replicates B,C) was -0.01968 and 0.08775, the “Log2 reporter intensity values” value (PSMD14; 20 nM, 60 min, replicates A-C) was -0.03468 and 0.06905 and -0.04719 and the “Log2 reporter intensity values” value (PSMD14; 20 nM, 180 min, replicates A-C) was 0.05966 and 0.0953 and 0.01379. For the same compound, the “Log2 reporter intensity values” value (PSMD14; 200 nM, 10 min, replicates B,C) was 0.3381 and 0.09077, the “Log2 reporter intensity values” value (PSMD14; 200 nM, 60 min, replicates A-C) was 0.2255 and 0.1628 and -0.008927 and the “Log2 reporter intensity values” value (PSMD14; [5]) was 0.02414 and 0.2255. For the same compound, the “Log2 reporter intensity values” value ([2]; 2 nM, 60 min, replicates A-C, listed as ABP 2) was 0.1489 and -0.6669, the “Log2 reporter intensity values” value ([2]; 20 nM, 10 min, replicates B,C) was 0.2437 and the “Log2 reporter intensity values” value ([2]; 20 nM, 60 min, replicates A-C, listed as ABP 2) was 0.1765 and 0.5295. The “Log2 reporter intensity values” value ([2]; 20 nM, 180 min, replicates A-C, listed as ABP 2) was 0.1037 and 0.2866, the “Log2 reporter intensity values” value ([2]; 200 nM, 10 min, replicates B,C) was 0.594 and the “Log2 reporter intensity values” value ([2]; 200 nM, 60 min, replicates A-C, listed as ABP 2) was 0.3986 and 0.5245. For the same compound, the “Log2 reporter intensity values” value [2, 5] was 0.3314, the “Log2 reporter intensity values” value ([3]; 2 nM, 60 min, replicates A-C) was 0.06074 and 0.05768 and -0.1222 and the “Log2 reporter intensity values” value ([3]; 20 nM, 10 min, replicates B,C) was 0.0266 and 0.08583. The “Log2 reporter intensity values” value ([3]; 20 nM, 60 min, replicates A-C) was -0.07107 and -0.1083 and 0.02034, the “Log2 reporter intensity values” value ([3]; 20 nM, 180 min, replicates A-C) was -0.3167 and 0.0151 and 0.03374 and the “Log2 reporter intensity values” value ([3]; 200 nM, 10 min, replicates B,C) was 0.03305 and -0.1026. The “Log2 reporter intensity values” value ([3]; 200 nM, 60 min, replicates A-C) was 0.09885 and 0.2045 and -0.1344, the “Log2 reporter intensity values” value [3, 5] was 0.109 and 0.1534 and the “Log2 reporter intensity values” value ([4]; 2 nM, 60 min, replicates A-C) was 0.1138 and 0.004511 and -0.04471. For the same compound, the “Log2 reporter intensity values” value ([4]; 20 nM, 10 min, replicates B,C) was 0.2038 and 0.1797, the “Log2 reporter intensity values” value ([4]; 20 nM, 60 min, replicates A-C) was 0.04003 and 0.2301 and -0.05461 and the “Log2 reporter intensity values” value ([4]; 20 nM, 180 min, replicates A-C) was -0.06212 and 0.248 and 0.23. For the same compound, the “Log2 reporter intensity values” value ([4]; 200 nM, 10 min, replicates B,C) was -0.05955 and -0.05362, the “Log2 reporter intensity values” value ([4]; 200 nM, 60 min, replicates A-C) was 0.07483 and 0.06943 and 0.1943 and the “Log2 reporter intensity values” value [4, 5] was 0.004999 and 0.2331.
